Results as given in US20260159520A1, “HETEROBIFUNCTIONAL COMPOUNDS AND METHODS OF TREATING DISEASE” (Halda Therapeutics OpCo, Inc., priority 2022, published 2026).

Experiments:
Assay type in all cases: cell-based
VCaP cells = experiment: Cellular growth inhibition assay for VCaP cells; conditions: Homo sapiens, 72 hours, CellTiter-Glo 2.0
Protocol: VCaP cells were purchased from American Type Cell Culture (ATCC Cat #CRL2876) and then seeded on poly-D-lysine coated, black clear-bottom 384-well plates at 5000/well in 25 μL Dulbecco's Modified Eagle Medium (DMEM) supplemented with 10% w/w Fetal bovine serum (FBS) and 1% w/w Pen-Strep. Pen-Strep is a commercially available mixture of penicillin G and streptomycin, which is used in mammalian cell culture media to prevent bacterial contamination. Dulbecco's Modified Eagle Medium (DMEM) supplemented with 10% w/w fetal bovine serum (FBS) and 1% w/w Pen-Strep is herein referred to as Treatment Medium. Following seeding of cells in the plates, the plates were spun at 300×g for 30 seconds, then equilibrated to room temperature for 30 minutes, and then deposited in a humidified tissue culture incubator maintained at 37° C. with 5% CO2.
(§1) At 24 hours after seeding of the cells, dilutions of test compound were prepared in DMSO and dissolved in Treatment Medium, to achieve a final DMSO concentration of 0.5% w/w, thereby providing the Test Compound Solution. A 25 μL aliquot of the Test Compound Solution was added to cells in the well plates. An equal volume of a solution containing DMSO and Treatment Medium was used as a negative control. Following treatment of cells with Test Compound Solution or said equal volume of a solution containing DMSO and Treatment Medium, the plates were spun at 300×g for 30 seconds, and then left in an incubator for 72 hours.
(§2) At the end of the treatment duration, cell viability was quantified with CellTiter-Glo 2.0 reagent (Promega Cat #G9243). For this purpose, plates were equilibrated to room temperature for 30 minutes, and then 25 μL of CellTiter-Glo 2.0 reagent was added to cells in the plate wells. Plates were then agitated on a shaker for two minutes at 500 rpm and subsequently incubated at room temperature for 10 minutes. Following incubation, the plates were spun at 3000×g for 30 seconds, then sealed with an optical adhesive cover, and luminescence readings were measured with an EnVision Plate Reader. Data was normalized using zero luminescence for baseline.
A four-parameter non-linear regression curve fit was applied to dose-response data in GraphPad Prism data analysis software to determine the half-maximal growth inhibitory concentration (GI50) for each test compound.

[1] = system: T-Rex 293 cell line SC3 cells having increased expression of androgen receptor protein; experiment: Cellular growth inhibition, T-Rex 293 SC3 cells with doxycycline (increased androgen receptor expression); conditions: with 10 ng/mL doxycycline (increased androgen receptor), 72 hours, CellTiter-Glo 2.0
Protocol: (§3) The following types of cells were prepared for this experiment: (i) a T-Rex 293 cell line having increased expression of androgen receptor protein due to exposure to doxycycline and (ii) a T-Rex 293 cell line lacking increased expression of androgen receptor protein. Ability of the test compounds to inhibit proliferation of the foregoing cell types was evaluated according to the procedures set forth below.
(§4) The doxycycline-inducible androgen receptor protein expressing cell line was established using the following protocol: T-Rex 293 cells were purchased from Invitrogen (Cat #R71007) and transfected using Lipofectamine 2000 with the wild-type androgen receptor protein sequence cloned into the pcDNA4/TO vector. Transfected cells were selected using 400 μg/mL Zeocin (Invitrogen Cat #R25001). Following selection, single clones were raised and maintained in Dulbecco's Modified Eagle Medium (DMEM) supplemented with 10% w/w Tetracycline-free fetal bovine serum (FBS) and 250 μg/mL Zeocin. Clones were analyzed for expression of androgen receptor protein in the presence and absence of 10 ng/mL doxycycline (Sigma Cat #D9891), and a single doxycycline-inducible clone (hereinafter “SC3”) was selected for use in downstream assays.
(§5) The SC3 cells were seeded on poly-D-lysine coated, black clear-bottom 384-well plates at 2500/well, in 25 μL Phenol Red Free Dulbecco's Modified Eagle Medium (DMEM) supplemented with 10% w/w charcoal-dextran treated fetal bovine serum (FBS) and 1% w/w pen-strep, with or without 10 ng/mL doxycycline. Pen-Strep is a commercially available mixture of penicillin G and streptomycin, which is used in mammalian cell culture media to prevent bacterial contamination. Phenol Red Free Dulbecco's Modified Eagle Medium (DMEM) supplemented with 10% w/w charcoal-dextran treated fetal bovine serum (FBS) and 1% w/w pen-strep, with or without 10 ng/mL doxycycline is herein referred to as Treatment Medium. Following seeding of cells in the plates, the plates were spun at 300×g for 30 seconds, then equilibrated to room temperature for 30 minutes, and then deposited in a humidified tissue culture incubator maintained at 37° C. with 5% CO2.
as §1
as §2, with “Reader.” for “Reader. Data was normalized using zero luminescence for baseline.”
(§6) Data was normalized using zero luminescence for baseline. A four-parameter non-linear regression curve fit was applied to dose-response data in GraphPad Prism data analysis software to determine the half-maximal growth inhibitory concentration (GI50) for each test compound.

[2] = system: T-Rex 293 cell line SC3 cells lacking increased expression of androgen receptor protein; experiment: Cellular growth inhibition, T-Rex 293 SC3 cells without doxycycline; conditions: not exposed to doxycycline, 72 hours, CellTiter-Glo 2.0
Protocol: as §3, §4, §5, §1
as §2, with “Reader.” for “Reader. Data was normalized using zero luminescence for baseline.”
as §6

SMILES | GI50 (VCaP cells) | GI50 [1] | GI50 [2]
CCc1cnn2c(NCc3ccc(OCCCOCCCOC4CCN(c5ncc(C(=O)N[C@H]6C(C)(C)[C@H](Oc7ccc(C#N)c(Cl)c7)C6(C)C)cn5)CC4)nc3)cc(N3CCCC[C@H]3CCO)nc12 [Compound I-35] | 100 to 1000 nM | < 100 nM | 100 to 1000 nM
CCc1cnn2c(NCc3ccc(OCCCOC4CCN(c5ncc(C(=O)N[C@H]6C(C)(C)[C@H](Oc7ccc(C#N)c(Cl)c7)C6(C)C)cn5)CC4)nc3)cc(N3CCCC[C@H]3CCO)nc12 [Compound I-26] |  | 1000 to 3500 nM | > 3500 nM
CCc1cnn2c(CCc3ccc(OCCCCCCOC4CCN(c5ncc(C(=O)N[C@H]6C(C)(C)[C@H](Oc7ccc(C#N)c(Cl)c7)C6(C)C)cn5)CC4)nc3)cc(N3CCCC[C@H]3CCO)nc12 [Compound I-29] |  | 100 to 1000 nM | > 3500 nM
CC1(C)[C@H](NC(=O)c2cnc(N3CCC(OCCOCCOCCOCCOCCOCCOCCNS(=O)(=O)c4ccc(Nc5ncc(Br)c(Nc6cccc(F)c6C(N)=O)n5)cc4)CC3)nc2)C(C)(C)[C@H]1Oc1ccc(C#N)c(Cl)c1 [Compound I-16] |  | > 3500 nM | > 3500 nM
CCc1cnn2c(NCc3ccc(OCCCCCCCOC4CCN(c5ncc(C(=O)N[C@H]6C(C)(C)[C@H](Oc7ccc(C#N)c(Cl)c7)C6(C)C)cn5)CC4)nc3)cc(N3CCCC[C@H]3CCO)nc12 [Compound I-30] |  | > 3500 nM | > 3500 nM
CN(CCOCCOCCOCCOCCOCCOCCNS(=O)(=O)c1ccc(Nc2ncc(Br)c(Nc3cccc(F)c3C(N)=O)n2)cc1)c1ncc(C(=O)N[C@H]2C(C)(C)[C@H](Oc3ccc(C#N)c(Cl)c3)C2(C)C)cn1 [Compound I-21] |  | > 3500 nM | > 3500 nM
CCc1cnn2c(NCc3ccc(OCCCC4CCN(CC5CCN(c6ncc(C(=O)N[C@H]7C(C)(C)[C@H](Oc8ccc(C#N)c(Cl)c8)C7(C)C)cn6)CC5)CC4)nc3)cc(N3CCCC[C@H]3CCO)nc12 [Compound I-53] |  | < 100 nM | 100 to 1000 nM
CCc1cnn2c(NCc3ccc(OCCCCCOC4CCN(c5ncc(C(=O)N[C@H]6C(C)(C)[C@H](Oc7ccc(C#N)c(Cl)c7)C6(C)C)cn5)CC4)nc3)cc(N3CCCC[C@H]3CCO)nc12 [Compound I-28] |  | 100 to 1000 nM | > 3500 nM

Now from value to molecule, other results behind:

GI50 (VCaP cells) | SMILES | GI50 [1] | GI50 [2]
100 to 1000 nM | CCc1cnn2c(NCc3ccc(OCCOCCCOC4CCN(c5ncc(C(=O)N[C@H]6C(C)(C)[C@H](Oc7ccc(C#N)c(Cl)c7)C6(C)C)cn5)CC4)nc3)cc(N3CCCC[C@H]3CCO)nc12 [Compound I-33] | < 100 nM | 1000 to 3500 nM
> 3500 nM | CCc1cnn2c(NCc3ccc(OCCCOCCCCOC4CCN(c5ncc(C(=O)N[C@H]6C(C)(C)[C@H](Oc7ccc(C#N)c(Cl)c7)C6(C)C)cn5)CC4)nc3)cc(N3CCCC[C@H]3CCO)nc12 [Compound I-39] | < 100 nM | > 3500 nM
< 100 nM | CCc1cnn2c(NCc3ccc(OCCCOCCOC4CCN(c5ncc(C(=O)N[C@H]6C(C)(C)[C@H](Oc7ccc(C#N)c(Cl)c7)C6(C)C)cn5)CC4)nc3)cc(N3CCCC[C@H]3CCO)nc12 [Compound I-32] | < 100 nM | 1000 to 3500 nM
> 3500 nM | CCc1cnn2c(NCc3ccc(OCCOCCCCCOC4CCN(c5ncc(C(=O)N[C@H]6C(C)(C)[C@H](Oc7ccc(C#N)c(Cl)c7)C6(C)C)cn5)CC4)nc3)cc(N3CCCC[C@H]3CCO)nc12 [Compound I-40] | < 100 nM | > 3500 nM
100 to 1000 nM | CCc1cnn2c(NCc3ccc(OCCCN4CCN(CC5CCN(c6ccc(C(=O)N[C@H]7C(C)(C)[C@H](Oc8ccc(C#N)c(Cl)c8)C7(C)C)nc6)CC5)CC4)nc3)cc(N3CCCC[C@@H]3CCO)nc12 [Compound I-57, N-((1r,3r)-3-(3-chloro-4-cyanophenoxy)-2,2,4,4-tetramethylcyclobutyl)-5-(4-((4-(3-((5-(((3-ethyl-5-((R)-2-(2-hydroxyethyl)piperidin-1-yl)pyrazolo[1,5-a]pyrimidin-7-yl)amino)methyl)pyridin-2-yl)oxy)propyl)piperazin-1-yl)methyl)piperidin-1-yl)picolinamide] | 100 to 1000 nM | 100 to 1000 nM
< 100 nM | CCc1cnn2c(NCc3ccc(OCCOCCCCOC4CCN(c5ncc(C(=O)N[C@H]6C(C)(C)[C@H](Oc7ccc(C#N)c(Cl)c7)C6(C)C)cn5)CC4)nc3)cc(N3CCCC[C@H]3CCO)nc12 [Compound I-36] | < 100 nM | > 3500 nM
> 3500 nM | CCc1cnn2c(NCc3ccc(OCCCCCOCCOC4CCN(c5ncc(C(=O)N[C@H]6C(C)(C)[C@H](Oc7ccc(C#N)c(Cl)c7)C6(C)C)cn5)CC4)nc3)cc(N3CCCC[C@H]3CCO)nc12 [Compound I-37] | 100 to 1000 nM | > 3500 nM
100 to 1000 nM | CCc1cnn2c(NCc3ccc(OCCCCOCCCOC4CCN(c5ncc(C(=O)N[C@H]6C(C)(C)[C@H](Oc7ccc(C#N)c(Cl)c7)C6(C)C)cn5)CC4)nc3)cc(N3CCCC[C@H]3CCO)nc12 [Compound I-38] | 100 to 1000 nM | > 3500 nM
100 to 1000 nM | CCc1cnn2c(NCc3ccc(OCCCN4CCN(CC5CCN(c6cnc(C(=O)N[C@H]7C(C)(C)[C@H](Oc8ccc(C#N)c(Cl)c8)C7(C)C)cn6)CC5)CC4)nc3)cc(N3CCCC[C@@H]3CCO)nc12 [Compound I-56, N-((1r,3r)-3-(3-chloro-4-cyanophenoxy)-2,2,4,4-tetramethylcyclobutyl)-5-(4-((4-(3-((5-(((3-ethyl-5-((R)-2-(2-hydroxyethyl)piperidin-1-yl)pyrazolo[1,5-a]pyrimidin-7-yl)amino)methyl)pyridin-2-yl)oxy)propyl)piperazin-1-yl)methyl)piperidin-1-yl)pyrazine-2-carboxamide] | 100 to 1000 nM | 100 to 1000 nM
